{
  "source": "patent US7253306B2",
  "about": "“Pharmaceutical drug candidates and methods for preparation thereof” (Neurochem (International) Limited, priority 2003, dated 2007)",
  "test": "Partition coefficient water/toluene",
  "format": "physicochemical",
  "data": [
    {"smiles": "O=S1(=O)CCCO1", "note": "[1,3-propane sultone]", "values": [
      {"measurement": "partition coefficient for water/toluene", "result": 1.4}
    ]}
  ]
}
